Data on two compounds can be found in patent US20240216385A1, “A PI3K-DELTA INHIBITOR FOR THE TREATMENT OF PANCREATIC CANCER” (IONCTURA SA, priority 2021, published 2024).

The subject of assay [1] is KPC/WCB3 cells orthotopically injected into the pancreas. As to the kind of experiment: KPC/WCB3 orthotopic mouse model of pancreatic cancer, histological analysis of pancreata. Format: in vivo. Particulars: orthotopic KPC/WCB3, C57BL/6J mice; treatment from day 7 for one month; FIG. 4. An excerpt:
This model is constituted by the implantation of KPC/WBC3 cells originating from a spontaneous developed donor tumour in KPC mice into the pancreas of male wildtype C57BL/6J recipient mice. The pathology and tumour microenvironment in this model closely resemble human pancreatic cancer.
Control animals received normal drinking water and standard chow. One month after initiation treatment was stopped and mice were euthanized. Pancreata were harvested and analysed by histological analysis for level of fibrosis, number of Tregs and number of proliferating CAFs.

In assay [2] the test system is KPC mouse model of pancreatic ductal adenocarcinoma (PDAC). As to the kind of experiment: KPC mouse model of pancreatic cancer, histological analysis of pancreata. In kind it is in vivo. The following applies: KPC mice treated from 5 to 11 weeks of age; Compound 2 in mixed chow; FIG. 1. An excerpt:
Control animals received normal drinking water and standard chow.

Assay [3] has as its system pancreatic cancer. Particulars: pancreatic cancer patients, standard treatment; cited from earlier work.

In the case of `C[C@H](NC(=O)CCc1nc2cccnc2n1Cc1ccc(OC(F)(F)F)cc1)c1ccc(Cl)cc1` [Compound 2, N-[(S)-1-(4-chloro-phenyl)-ethyl]-3-[3-(4-trifluoromethoxy-benzyl)-3H-imidazo[4,5-b]pyridin-2-yl]-propionamide], in assay [1], the Tregs entry is listed as “significantly reduces”, the “proliferating CAFs” value is listed as “significantly reduces” and the tumour fibrosis score result is “limited effect”. In assay [2], the “number of low-grade (PanIN-1 and PanIN-2) lesions” value is “reduces”; the tumour burden entry is reported as “without having significant effects”.

As for `Nc1ccn([C@@H]2O[C@H](CO)[C@@H](O)C2(F)F)c(=O)n1` [gemcitabine], in assay [3], the “average median overall survival” value was 6 months and the response rate is listed as 5-10%.
